Laboratory results taken from publication PMC8234231, “In Vitro Inhibition of Renal OCT2 and MATE1 Secretion by Antiemetic Drugs” (International Journal of Molecular Sciences, 2021).

Columns and labels:
MDCK monolayers = assay: Passive permeability of lucifer yellow across MDCK monolayers; type: in vitro ADME, canine; conditions: lucifer yellow 20 μM, B-to-A, 1 h
Description: Both MDCK cell lines were seeded on 0.4 μm transwell inserts (VWR, Radnor, PA, USA) at a density of 2 × 10^5 cells/cm^2. […] The integrity of MDCK monolayers was verified by measuring transepithelial electrical resistance (TEER) >150 Ω*cm^2 using an epithelial voltohmmeter, EVOM^2 (World Precision Instruments, Sarasota, FL). Proper formation of tight junctions was also verified by measurement of passive permeability of lucifer yellow in the basolateral-to-apical (B-to-A) direction. Lucifer yellow (20 μM) was applied to the basolateral chamber for 1 h, and media were collected from the apical chamber.

[1] = system: empty vector (EV) HEK293 cells; assay: Concentration-dependent uptake of ASP+ in empty vector HEK293 cells; type: cell-based, human; conditions: EV HEK293, 0–100 μM, 1 min
Description: Figure 2 Time and Concentration-Dependent Accumulation of ASP^+ in HEK293 Cells Overexpressing OCT2 or MATE1. HEK cells expressing empty vector (EV), OCT2, or MATE1 were incubated for different time periods (0.5–20 min, 10 μM ASP^+, 37 °C) to evaluate time-dependent uptake (A) or with increasing concentrations of ASP^+ (0–100 μM, 1 min 37 °C) for concentration-dependent uptake (B) on a shaker. Specific transport uptake is shown in dashed lines. Intracellular fluorescence was quantified and normalized to protein concentration. Data are presented as mean ± SE (n = 3).
OCT2- and MATE1-overexpressing HEK293 cells were seeded in clear poly-^D-lysine-coated 24-well plates (Fisher Scientific, Hanover Park, IL, USA) and grown for 24 h until approximately 90% confluent. […]
GraphPad Prism v6 (GraphPad Software, La Jolla, CA, USA) was used for statistical analysis. Km and Vmax were calculated using nonlinear regression (Michaelis–Menten enzyme kinetics equation, (Y = Vmax × X/(Km + X), fit for least squares). Data with two variables were analyzed using a two-way ANOVA followed by a one-way ANOVA and/or Dunnett’s post-hoc test for multiple comparisons. IC50 values were calculated via a nonlinear regression to fit least squares. Differences were considered statistically significant at p < 0.05.

MATE1 = target: T1, MATE1 (Homo sapiens, UniProt Q96FL8); assay: Concentration-dependent uptake of ASP+ in MATE1-expressing HEK293 cells; type: cell-based
T1 construct: expressed in transfected cells; gift of Dr. Kathy Giacomini, UCSF
T1 sequence (Q96FL8 1-570): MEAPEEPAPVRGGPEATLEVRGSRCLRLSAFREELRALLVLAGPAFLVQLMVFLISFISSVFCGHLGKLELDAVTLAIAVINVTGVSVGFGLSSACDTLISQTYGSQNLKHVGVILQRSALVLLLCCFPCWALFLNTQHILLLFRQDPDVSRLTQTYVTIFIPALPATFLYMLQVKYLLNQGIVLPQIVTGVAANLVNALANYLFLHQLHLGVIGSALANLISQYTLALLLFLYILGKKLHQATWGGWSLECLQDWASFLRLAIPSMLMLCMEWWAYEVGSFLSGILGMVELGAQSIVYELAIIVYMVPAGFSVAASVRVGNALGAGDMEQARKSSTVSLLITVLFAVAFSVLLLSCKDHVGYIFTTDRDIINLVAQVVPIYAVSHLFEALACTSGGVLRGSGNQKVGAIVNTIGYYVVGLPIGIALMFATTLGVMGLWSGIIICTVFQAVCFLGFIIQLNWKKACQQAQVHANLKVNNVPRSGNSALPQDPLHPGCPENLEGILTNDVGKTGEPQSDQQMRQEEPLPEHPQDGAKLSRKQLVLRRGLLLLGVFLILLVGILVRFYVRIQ
Description: After washing once with prewarmed Hank’s Buffered Saline Solution (HBSS), cells were preincubated for 30 min at 37 °C with various 5-HT3 antagonists for OCT2 cells or in a 30 mM NH4Cl solution in HBSS at pH 6.5 for MATE1 cells for intracellular acidification. […] […] […] Media was removed and washed four times with ice-cold HBSS. Cells were lysed with 1% Triton X-100. […] Experiments were repeated three separate times, with three to four replicates in each experiment.
GraphPad Prism v6 (GraphPad Software, La Jolla, CA, USA) was used for statistical analysis.

OCT2 and MATE1 = assay: Bidirectional transcellular flux of ASP+ in OCT2/MATE1 double-transfected MDCK cells; type: cell-based, human; conditions: human, ASP+ 25 μM, read-out: B-to-A/A-to-B efflux ratio
Description: (§1) Figure 4 Transcellular Flux of ASP^+ in Control and OCT2/MATE1-Transfected MDCK cells. (A). Protein expression of OCT2 (~63 kDa,) and MATE1 (~54 kDa) in vector control MDCK cells (lanes 1–2) and OCT2/MATE1 double transfected (lanes 3–4). (B). Cells were incubated with ASP^+ (25 μM) in either apical or basolateral media for 120 min and fluorescence in apical or basolateral media was quantified (A-to-B: apical-to-basolateral; B-to-A: basolateral-to-apical). ^† p < 0.05 compared to A-to-B. ^‡ p < 0.05 compared to vector. (C). Cells were incubated with ASP^+ (25 μM) in basolateral media and positive control inhibitors in apical and basolateral media for 120 min. Fluorescence was measured in the apical chamber. (D). Intracellular fluorescence was quantified and normalized to protein concentration. Data are expressed as mean ± SE (n = 3). * p < 0.05 compared to no inhibitor. CIM–Cimetidine; PYR–Pyrimethamine; OLA–Olanzapine.
(§2) Cells were incubated with 5-HT3 antagonists in the apical chamber in HBSS pH 6.0 and 5-HT3 antagonists with ASP^+ (25 μM) in the basolateral chamber in HBSS pH 7.4 and incubated at 37 °C for 120 min. […]

human OCT2 and MATE1 = assay: as above; type: cell-based; conditions: ASP+ 25 μM, 120 min
Description: as §1, §2

[2] = Bidirectional transcellular flux of ASP+ in control MDCK cells; type: cell-based, canine; conditions: dog, ASP+ 25 μM, read-out: B-to-A transport relative to A-to-B transport
Description: as §1, §2

Average passive permeability (Papp) (MDCK monolayers) [×10⁻⁶ cm/s]	Compound	Km [1] [µM]	Vmax of ASP+ uptake [1] [nmol/mg/min]	Vmax of ASP+ uptake (MATE1; MATE1-expressing HEK293, 0–100 μM, 1 min) [nmol/mg/min]	Km at 1 min (MATE1; human, HEK293 cells overexpressing MATE1, pH 7.4, MATE1-expressing HEK293, 0–100 μM) [µM]	efflux ratio at 120 min, 25 μM (OCT2 and MATE1)	B-to-A transport relative to A-to-B transport (human OCT2 and MATE1)	efflux ratio at 90 min, 25 μM ([2]; 90 min)	efflux ratio at 120 min, 25 μM ([2]; 120 min)
0.7	Lucifer yellow								
	CN(C)c1ccc(C=Cc2cc[n+](C)cc2)cc1.[I-] [ASP^+, 4-(4-(Dimethylamino)styryl)-N-methylpyridinium iodide]	37.3	1.9	3.4	8.2	2.7	up to 2.8 fold	1.3	1.7
